# What was measured:
# Assay in all cases: FLIPR calcium imaging in transfected HEK293 PEAKrapid Gα[…]i/o44 cells, dose-response with mock control
# Type in all cases: cell-based
# TAS2R20 = biological target: T1, TAS2R20 (Homo sapiens, UniProt P59543)
# T1 construct: TAS2R cDNA cloned 3′ of the first 45 amino acids of the rat somatostatin receptor 3
# T1 sequence (P59543 1-309): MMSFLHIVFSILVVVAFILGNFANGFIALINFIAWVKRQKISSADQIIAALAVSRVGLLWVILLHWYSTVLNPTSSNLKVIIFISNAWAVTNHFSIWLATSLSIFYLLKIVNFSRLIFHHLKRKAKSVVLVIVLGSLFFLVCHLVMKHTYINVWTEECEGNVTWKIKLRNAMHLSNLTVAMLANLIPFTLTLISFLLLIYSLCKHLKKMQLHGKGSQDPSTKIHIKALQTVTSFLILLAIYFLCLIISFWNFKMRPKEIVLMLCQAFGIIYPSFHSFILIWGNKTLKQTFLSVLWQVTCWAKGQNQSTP
# TAS2R39 = biological target: T2, TAS2R39 (Homo sapiens, UniProt P59534)
# T2 construct: TAS2R cDNA cloned 3′ of the first 45 amino acids of the rat somatostatin receptor 3
# T2 sequence (P59534 1-338): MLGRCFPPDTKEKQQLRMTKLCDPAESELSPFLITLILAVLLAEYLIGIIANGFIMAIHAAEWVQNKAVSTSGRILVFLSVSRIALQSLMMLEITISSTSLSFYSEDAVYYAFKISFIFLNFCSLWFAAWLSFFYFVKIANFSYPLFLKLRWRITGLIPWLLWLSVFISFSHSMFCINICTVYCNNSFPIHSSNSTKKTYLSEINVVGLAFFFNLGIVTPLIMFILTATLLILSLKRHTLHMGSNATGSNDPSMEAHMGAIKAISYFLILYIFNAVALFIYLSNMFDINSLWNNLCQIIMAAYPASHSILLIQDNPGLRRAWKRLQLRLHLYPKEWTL
# TAS2R14 = biological target: T3, TAS2R14 (Homo sapiens, UniProt Q9NYV8)
# T3 construct: TAS2R cDNA cloned 3′ of the first 45 amino acids of the rat somatostatin receptor 3
# T3 sequence (Q9NYV8 1-317): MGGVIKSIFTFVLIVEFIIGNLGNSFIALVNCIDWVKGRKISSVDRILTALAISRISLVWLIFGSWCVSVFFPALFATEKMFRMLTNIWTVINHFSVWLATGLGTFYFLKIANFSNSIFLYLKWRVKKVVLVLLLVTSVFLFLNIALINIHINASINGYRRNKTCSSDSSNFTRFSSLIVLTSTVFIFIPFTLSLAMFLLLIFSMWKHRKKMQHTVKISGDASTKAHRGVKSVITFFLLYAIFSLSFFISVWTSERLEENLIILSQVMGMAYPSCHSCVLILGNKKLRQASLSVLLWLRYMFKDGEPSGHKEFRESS
smiles,measurement,setting,value
"COc1cc(C=O)ccc1O [vanillin, 4-hydroxy-3-methoxybenzaldehyde]",EC50,TAS2R20,530 ± 90 µM
same,EC50,TAS2R39,870 ± 190 µM
same,EC50,TAS2R14,570 ± 110 µM
